Patent US20060269482A1 (priority 2005, published 2006)

Key:
[1] = system: Rb phosphorylation in rat PBMCs; assay: Rb phosphorylation in ex vivo PMA-stimulated rat PBMCs after a single oral dose; settings: single oral dose 80 mg/kg
Procedure: The dose selected was 80 mg/kg, determined to be an efficacious dose in this animal model. Tumor growth inhibition in the MTLn3 xenograft model after 2 to 3 weeks of oral dosing at 80 mg/kg once weekly averaged 90% with 2/10 complete regressions. COMPOUND A was dosed on day 10 post implantation of cells, at which time the tumors were 100-200 mm^3 in size. In this pharmacokinetic/pharmacodynamic experiment, plasma and tumors were collected at 1, 2, 6, 24 and 72 hours post dosing of a single oral dose of COMPOUND A. Tumors were removed and immediately snap frozen in liquid nitrogen and stored at −80° C. until drug concentration analysis. […] Concentrations of COMPOUND A in plasma and tumors were determined in the same three animals per time point. […] Peripheral blood mononuclear cells (PBMCs) were isolated, stimulated ex vivo with mitogen and analyzed by Western blot as described below. […]
PBMCs were collected by transferring the cells, including attached cells and those in suspension, into 50 ml tubes. […] Samples were sonicated on ice for 30 seconds, clarified by centrifugation at 16,000×g for 10 minutes at 4° C. and protein concentrations determined using Non-Interfering Protein Assay Kit (Geno Technology Incorporated, Maplewood, Mo.). […] For Western blotting, total Rb was detected using antibody from Pharmingen (BD Bioscience, San Diego, Calif.) at a dilution of 1:2000. […]

[2] = system: retinoblastoma protein (Rb) phosphorylation in HCT116 cells; assay: Rb phosphorylation in HCT116 cells by Western blot and ELISA; assay type: cell-based, human; settings: HCT116, 20 hours, 0.1, 0.2 and 0.6 μM
Procedure: Cells were washed 3 times with cold PBS on ice and scraped from the flasks. All cells were collected in 15 ml tubes. Cells were pelleted by centrifugation and lysis buffer was added (1:1 PBS: 2× Tris-Glycine SDS Sample Buffer (Invitrogen, Carlsbad, Calif.) containing 5% 2-β mercaptoethanol). The volume of lysis buffer used was 5 ul per 1×10^6 cells. Samples were sonicated for 30 seconds on ice. Following sonication, samples were clarified by centrifugation at 16,000×g for 10 minutes at 4° C. and protein concentrations were determined using Non-Interfering Protein Assay Kit (Geno Technology Incorporated, Maplewood, Mo.). Proteins were denatured by boiling for 5 minutes and centrifuged as described above. […] For Western blotting, total Rb was detected using antibody from Pharmingen (BD Bioscience, San Diego, Calif.) at a dilution of 1:2000. The phosphorylation status of Rb at serine 780, serine 795 and serine 807/811 was detected with phosphospecific antibodies at dilutions of 1:1000 (Cell Signaling Technology, Beverly, Mass.). […]
HCT116 cells were treated for 20 hours at the IC50 (0.1 μM), IC90 (0.2 μM) and 3×IC90 (0.6 μM) concentrations for cell growth inhibition, as determined in a 5-day proliferation assay. Lysates were analyzed by Western blotting for Rb phosphorylation at serine 795 and serine 780 (FIG. 1). […]

## COc1ccc(F)c(F)c1C(=O)c1cnc(NC2CCN(S(C)(=O)=O)CC2)nc1N [COMPOUND A, [4-amino-2-(1-methanesulfonylpiperidin-4-ylamino)pyrimidin-5-yl]-(2,3-difluoro-6-methoxyphenyl)methanone]
[1]; female Fischer rats
  Total Rb levels in PBMCs: did not appear to decrease
[1]; female Fischer rats, 2, 6 and up to 24 hours post treatment, Western blot
  Rb phosphorylation (serine 795) in ex vivo stimulated PBMCs: decrease in Rb phosphorylation
[2]
  Rb phosphorylation at serine 795, serine 780 (Western blot) and threonine 821 (ELISA): inhibition of phosphorylation at all three CDK phosphorylation sites in a concentration-dependent fashion
